Patent US12410160B2 (Gilead Sciences, Inc., priority 2021, dated 2025)
Read-outs that look alike come from different tables or passages of the source.

Legend:
human KHK-C = human KHK-C (Homo sapiens (Human), UniProt P50053); test: KHK Biochemical Assay (IC50), ADP-Glo, KHK-C
Experimental: (§1) The His-tagged fusion protein was expressed using BL21 (DE3) with IPTG induction and purified using Ni-NTA column followed by dialysis into final buffer containing 25 mM Tris-HCl pH 8.0, 250 mM NaCl.
(§2) KHK Biochemical Assay (IC50)
(§3) Compounds were tested for KHK enzyme inhibition in a high-throughput 384-well assay format using the ADP-Glo assay (Promega) in buffer consisting of 50 mM Hepes (pH 7.4), 140 mM KCl, 5 mM MgCl2 and 0.01% Triton-X. 0.2 nM. […] Compounds were serially diluted (1:3) in DMSO.
(§4) The compounds were pre-incubated with 5 μL of 2× final enzyme concentration for 30 minutes before adding 5 μL of 2× final concentration of ATP and fructose. The plates were incubated at room temperature for 4 hours before adding ADP-Glo reagent to quench the enzyme reaction, followed by incubation at room temperature for 1 hour. The ADP-Glo detection reagent was then added to the plates and luminescence was measured on the Envision plate reader after 1 hour.

human KHK-A = human KHK-A (Homo sapiens (Human), UniProt P50053); test: KHK Biochemical Assay (IC50), ADP-Glo, KHK-A; settings: average of at least two separate assays
Experimental: as §1, §2, §3, §4

[1] = average of at least two separate assays
[2] = ADP-Glo, average of at least two separate assays

Sequence of human KHK-A (P50053 other isoform, or with tags, fused parts or gaps): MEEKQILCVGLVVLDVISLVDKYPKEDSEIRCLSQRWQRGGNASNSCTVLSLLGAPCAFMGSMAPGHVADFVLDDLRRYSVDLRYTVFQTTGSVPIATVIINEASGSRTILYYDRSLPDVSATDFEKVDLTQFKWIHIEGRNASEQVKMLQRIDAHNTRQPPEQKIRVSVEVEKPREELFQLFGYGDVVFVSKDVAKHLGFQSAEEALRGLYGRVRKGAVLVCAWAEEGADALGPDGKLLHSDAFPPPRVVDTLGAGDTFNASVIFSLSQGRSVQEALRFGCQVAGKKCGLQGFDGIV
Sequence of human KHK-C (P50053 whole entry, the tested form may be a part): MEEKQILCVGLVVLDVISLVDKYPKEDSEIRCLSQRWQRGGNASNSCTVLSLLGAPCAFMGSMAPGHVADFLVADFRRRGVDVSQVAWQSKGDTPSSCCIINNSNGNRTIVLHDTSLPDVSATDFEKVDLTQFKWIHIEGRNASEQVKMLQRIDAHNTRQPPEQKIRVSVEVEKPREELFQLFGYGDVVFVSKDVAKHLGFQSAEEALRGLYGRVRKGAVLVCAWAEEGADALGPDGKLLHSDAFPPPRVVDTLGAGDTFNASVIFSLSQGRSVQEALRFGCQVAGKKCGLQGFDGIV

**Q.** Which IC50 (human KHK-C; [1]) does the source give for “2-(3-(7,7-difluoro-2-((2S,3R)-3-hydroxy-2-methylazetidin-1-yl)-6,7-dihydro-5H-cyclopenta[d]pyrimidin-4-yl)phenylsulfonimidoyl)acetonitrile [Example 628]” here?
**A.** 8.8 nM

**Q.** What about the IC50 (human KHK-A) of the same compound?
**A.** 10.3 nM

**Q.** Which IC50 (human KHK-C; [2]) does the source give for “2-[(2S)-2-methylazetidin-1-yl]-4-(3-methylimidazol-4-yl)-6,7-dihydro-5H-cyclopenta[d]pyrimidine [Example 341]” here?
**A.** 111 nM

**Q.** What about the IC50 (human KHK-A; ADP-Glo) of the same compound?
**A.** 133 nM

**Q.** “3-(24(2S,3R)-3-fluoro-2-methylazetidin-1-yl)-6,8-dihydro-5H-pyrano[3,4-d]pyrimidin-4-yl)benzenesulfonamide [Example 287]” was tested. Which IC50 (human KHK-C; [2]) did it give?
**A.** 1270 nM

**Q.** And the IC50 (human KHK-A; ADP-Glo)?
**A.** 696 nM

**Q.** Which results are given for `C[C@H]1CCN1c1nc(-c2ccccc2)c2c(n1)C1CC1C2` (mixture of isomers) [Example 332, 9-[(2S)-2-methylazetidin-1-yl]-7-phenyl-8,10-diazatricyclo[4.4.0.02,4]deca-1(10),6,8-triene]?
**A.** IC50 (human KHK-C; [2]): 2170 nM; IC50 (human KHK-A; ADP-Glo): 1910 nM

**Q.** Which IC50 (human KHK-C; [2]) does the source give for `C[C@H]1CCN1c1nc2c(c(-c3cccc(C(=O)N[C@H]4CC[C@@H]4O)c3)n1)CCC2` (racemic) [Example 59, N-((18*,28*)-2-hydroxycyclobutyl)-3-(2-((8)-2-methylazetidin-1-yl)-6,7-dihydro-5H-cyclopenta[d]pyrimidin-4-yl)benzamide] here?
**A.** 171 nM

**Q.** And the IC50 (human KHK-A; ADP-Glo)?
**A.** 42.9 nM

**Q.** For `C[C@H]1CCN1c1nc2c(c(-c3cccc(C(=O)N[C@H]4CC[C@H]4O)c3)n1)CCC2` (racemic) [Example 60, N-((18*,2R*)-2-hydroxycyclobutyl)-3-(2-((8)-2-methylazetidin-1-yl)-6,7-dihydro-5H-cyclopenta[d]pyrimidin-4-yl)benzamide], which IC50 (human KHK-C; [2]) is on record?
**A.** 119 nM

**Q.** What about the IC50 (human KHK-A; ADP-Glo) of the same compound?
**A.** 61.6 nM

**Q.** Which results are given for `NS(=O)(=O)c1cccc(-c2nc(N3CC4CCCC43)nc3c2CCC3)c1` (racemic) [Example 79, (rac)-3-(2-(6-azabicyclo[3.2.0]heptan-6-yl)-6,7-dihydro-5H-cyclopenta[d]pyrimidin-4-yl)benzenesulfonamide]?
**A.** IC50 (human KHK-C; [2]): 4990 nM; IC50 (human KHK-A; ADP-Glo): 6960 nM

**Q.** How did the IC50 (human KHK-C; [2]) turn out when `NS(=O)(=O)c1cccc(-c2nc(N3CC[C@@H]4[C@H](O)C[C@@H]43)nc3c2CCC3)c1` (racemic) [Example 80, (rac)-3-(2-((1S*,5S*,6R*)-6-hydroxy-2-azabicyclo[3.2.0]heptan-2-yl)-6,7-dihydro-5H-cyclopenta[d]pyrimidin-4-yl)benzenesulfonamide] was run?
**A.** 957 nM

**Q.** And the IC50 (human KHK-A; ADP-Glo)?
**A.** 865 nM

**Q.** For `C[C@H]1[C@H](O)CN1c1nc2c(c(-c3cccc([C@H]4C[C@@H]4C(=O)O)c3)n1)CCC2` (single isomer, unassigned) [Example 113], which IC50 (human KHK-C; [2]) is on record?
**A.** 13.2 nM

**Q.** What about the IC50 (human KHK-A; ADP-Glo) of the same compound?
**A.** 18.2 nM

**Q.** Which results are given for `C[C@H]1[C@H](O)CN1c1nc2c(c(-c3cccc([C@@H]4C[C@H]4C(=O)O)c3)n1)CCC2` (single isomer, unassigned) [Example 114]?
**A.** IC50 (human KHK-C; [2]): 46.2 nM; IC50 (human KHK-A; ADP-Glo): 51 nM

**Q.** Which results are given for `C[C@H]1CCN1c1nc(-c2ccccc2)c2c(n1)[C@H]1C[C@H]1C2` (single isomer, unassigned) [Example 334]?
**A.** IC50 (human KHK-C; [2]): 9700 nM; IC50 (human KHK-A; ADP-Glo): 9270 nM

**Q.** `C[C@H]1[C@H](O)CN1c1nc(-c2ccc3c(c2)OC[C@]32COC(=O)N2)c2c(n1)C(F)(F)CC2` (single isomer, unassigned) [Example 482] was tested. Which IC50 (human KHK-C; [1]) did it give?
**A.** 12 nM

**Q.** What about the IC50 (human KHK-A) of the same compound?
**A.** 26.4 nM

**Q.** `C[C@H]1[C@H](O)CN1c1nc(-c2ccc3c(c2)OC[C@]32COCC(=O)N2)c2c(n1)C(F)(F)CC2` (single isomer, unassigned) [Example 498] was tested. Which IC50 (human KHK-C; [1]) did it give?
**A.** 1.2 nM

**Q.** And the IC50 (human KHK-A)?
**A.** 18.9 nM

**Q.** For `C[C@H]1[C@H](O)CN1c1nc(-c2ccc(OC3CC3)c([S@](C)(=N)=O)c2)c2c(n1)C(F)(F)CC2` (single isomer, unassigned) [Example 543], which IC50 (human KHK-C; [1]) is on record?
**A.** 10.6 nM

**Q.** What about the IC50 (human KHK-A) of the same compound?
**A.** 6.2 nM

**Q.** What does the source list for `CC1OC[C@]2(COc3cc(-c4nc(N5C[C@@H](O)[C@@H]5C)nc5c4CCC5(F)F)ccc32)NC1=O` (single isomer, unassigned) [Example 560]?
**A.** IC50 (human KHK-C; [1]): 16.2 nM; IC50 (human KHK-A): 75.2 nM

**Q.** What does the source list for `C[C@H]1[C@H](O)CN1c1nc(-c2ccc3c(c2)OC[C@@]32NC(=O)OC2(C)C)c2c(n1)C(F)(F)CC2` (single isomer, unassigned) [Example 567]?
**A.** IC50 (human KHK-C; [1]): 44.3 nM; IC50 (human KHK-A): 65 nM

**Q.** Which IC50 (human KHK-C; [1]) does the source give for `C[C@H]1[C@H](O)CN1c1nc2c(c(-c3ccc4cnc(N)cc4c3)n1)CCC2` [Example 448, (2S,3R)-1-[4-(3-amino-6-isoquinolyl)-6,7-dihydro-5H-cyclopenta[d]pyrimidin-2-yl]-2-methyl-azetidin-3-ol] here?
**A.** 121 nM

**Q.** For `N#CC1CCN1c1nc2c(c(-c3ccc(C(N)=O)cc3)n1)CCC2` (stereo not drawn) [Example 458, 4-(2-(2-cyanoazetidin-1-yl)-6,7-dihydro-5H-cyclopenta[d]pyrimidin-4-yl)benzamide], which IC50 (human KHK-C; [1]) is on record?
**A.** 57.2 nM

**Q.** For `CS(=O)(=O)N[C@H]1COc2cc(-c3nc(N4C[C@@H](O)[C@@H]4CF)nc4c3CCC4(F)F)ccc21` [Example 484, N-((R)-6-(7,7-difluoro-2-((2R,3R)-2-(fluoromethyl)-3-hydroxyazetidin-1-yl)-6,7-dihydro-5H-cyclopenta[d]pyrimidin-4-yl)-2,3-dihydrobenzofuran-3-yl)methanesulfonamide], which IC50 (human KHK-C; [1]) is on record?
**A.** 1.2 nM

**Q.** `C[C@H]1[C@H](O)CN1c1nc(-c2ccc3c(c2)CC[C@@]32NC(=O)NC2=O)c2c(n1)C(F)(F)CC2` [Example 485, (R)-5′-(7,7-difluoro-2-((2S,3R)-3-hydroxy-2-methylazetidin-1-yl)-6,7-dihydro-5H-cyclopenta[d]pyrimidin-4-yl)-2′,3′-dihydrospiro[imidazolidine-4,1′-indene]-2,5-dione] was tested. Which IC50 (human KHK-C; [1]) did it give?
**A.** 22.6 nM

**Q.** Which IC50 (human KHK-C; [1]) does the source give for `COc1c(F)cc(-c2nc(N3C[C@@H](O)[C@@H]3C)nc3c2CCC3(F)F)cc1S(C)(=N)=O` (stereo partly drawn) [Example 535, (5-(7,7-difluoro-2-((2S,3R)-3-hydroxy-2-methylazetidin-1-yl)-6,7-dihydro-5H-cyclopenta[d]pyrimidin-4-yl)-3-fluoro-2-methoxyphenyl)(imino)(methyl)-λ^6-sulfanone] here?
**A.** 15.8 nM

**Q.** `COc1ccc(-c2nc(N3C[C@@H](O)[C@@H]3C)nc3c2CCC3(F)F)cc1S(=N)(=O)C1CC1` (stereo partly drawn) [Example 538, cyclopropyl(5-(7,7-difluoro-2-((2S,3R)-3-hydroxy-2-methylazetidin-1-yl)-6,7-dihydro-5H-cyclopenta[d]pyrimidin-4-yl)-2-methoxyphenyl)(imino)-λ^6-sulfanone] was tested. Which IC50 (human KHK-C; [1]) did it give?
**A.** 2.3 nM

**Q.** `CS(=O)(=O)N[C@H]1COc2cc(-c3nc(N4CCC4C(F)F)nc4c3CCC4(F)F)ccc21` (stereo partly drawn) [Example 544, N-((3R)-6-(2-(2-(difluoromethyl)azetidin-1-yl)-7,7-difluoro-6,7-dihydro-5H-cyclopenta[d]pyrimidin-4-yl)-2,3-dihydrobenzofuran-3-yl)methanesulfonamide] was tested. Which IC50 (human KHK-C; [1]) did it give?
**A.** 1.1 nM

**Q.** For `C[C@H]1CCN1c1nc(-c2ccc3c(c2)C(NS(C)(=O)=O)CC3)c2c(n1)C(F)(F)CC2` (stereo partly drawn) [Example 607], which IC50 (human KHK-C; [1]) is on record?
**A.** 0.9 nM

**Q.** For `C[C@H]1[C@H](O)CN1c1nc(-c2ccc3c(c2)C(F)(F)CC3NS(C)(=O)=O)c2c(n1)C(F)(F)CC2` (stereo partly drawn) [Example 633, N-(5-(7,7-difluoro-2-((2S,3R)-3-hydroxy-2-methylazetidin-1-yl)-6,7-dihydro-5H-cyclopenta[d]pyrimidin-4-yl)-3,3-difluoro-2,3-dihydro-1H-inden-1-yl)methanesulfonamide], which IC50 (human KHK-C; [1]) is on record?
**A.** 2 nM

**Q.** `NC1(c2ccc(-c3nc(N4C[C@@H](O)[C@@H]4CF)nc4c3CCC4(F)F)cc2)COC1` [Example 677, (2R,3R)-1-[4-[4-(3-aminooxetan-3-yl)phenyl]-7,7-difluoro-5,6-dihydroeyelopenta[d]pyrimidin-2-yl]-2-(fluoromethyl)azetidin-3-ol] was tested. Which IC50 (human KHK-C; [1]) did it give?
**A.** 4.8 nM

**Q.** For `C[C@H]1CCN1c1nc(-c2cccc(NS(C)(=N)=O)c2)c2c(n1)C(F)(F)CC2` (stereo partly drawn) [Example 684, 4-[3-[(amino-methyl-oxo-λ^6-sulfanylidene)amino]phenyl]-7,7-difluoro-2-[(2S)-2-methylazetidin-1-yl]-5,6-dihydrocyclopenta[d]pyrimidine], which IC50 (human KHK-C; [1]) is on record?
**A.** 3.8 nM

**Q.** For `C[C@H]1[C@H](O)CN1c1nc(-c2cc3c(c(S(C)(=N)=O)c2)OCC3)c2c(n1)C(F)(F)CC2` (stereo partly drawn) [Example 716, (5-(7,7-difluoro-2-((2S,3R)-3-hydroxy-2-methylazetidin-1-yl)-6,7-dihydro-5H-cyclopenta[d]pyrimidin-4-yl)-2,3-dihydrobenzofuran-7-yl)(imino)(methyl)-λ^6-sulfanone], which IC50 (human KHK-C; [1]) is on record?
**A.** 3.8 nM

**Q.** `C[C@H]1CCN1c1nc2c(c(-c3ccc(Cl)c(S(C)(=N)=O)c3)n1)CCC2` (stereo partly drawn) [Example 727] was tested. Which IC50 (human KHK-C; [1]) did it give?
**A.** > 500 nM

**Q.** With `C[C@H]1[C@H](O)CN1c1nc(-c2ccc3c(c2)CC(C)(C)C3NS(C)(=O)=O)c2c(n1)C(F)(F)CC2` (stereo partly drawn) [Example 816, N-[5-[7,7-difluoro-2-[(2S,3R)-3-hydroxy-2-methyl-azetidin-1-yl]-5,6-dihydrocyclopenta[d]pyrimidin-4-yl]-2,2-dimethyl-indan-1-yl]methanesulfonamide] as the compound, how does the IC50 (human KHK-C; [2]) read?
**A.** 23.4 nM

**Q.** Which IC50 (human KHK-C; [2]) does the source give for `C[C@H]1[C@H](O)CN1c1nc(-c2ccc3c(c2)S(=N)(=O)CCO3)c2c(n1)C(F)(F)CC2` (stereo partly drawn) [Example 818, (2S,3R)-1-[7,7-difluoro-4-(4-imino-4-oxo-2,3-dihydro-1,4λ^6-benzoxathiin-6-yl)-5,6-dihydrocyclopenta[d]pyrimidin-2-yl]-2-methyl-azetidin-3-ol] here?
**A.** 2.5 nM

**Q.** With `C[C@H]1CCN1c1nc(N2CC3CC3C2)cc(C(F)(F)F)n1` (stereo partly drawn) [Reference Compound 1b, 3-(2-((S)-2-methylazetidin-1-yl)-6-(trifluoromethyl)pyrimidin-4-yl)-3-azabicyclo[3.1.0]hexane, reference compound] as the compound, how does the IC50 (human KHK-C) read?
**A.** 13100 nM
